Legend:
[1] = test system: T47D cells; test: Cellular growth inhibition assay for T47D cells, CellTiter-Glo; type: cell-based, human; details: 72 hours treatment, CellTiter-Glo 2.0 cell viability
Method in brief: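 Cells are plated at 3000/well and allowed 24 h before treatment. Test compound in medium containing 0.5% DMSO is then added, with DMSO-only wells as negative control, and plates are incubated 72 h at 37 °C. ATP luminescence (CellTiter-Glo 2.0) is then fitted to four parameters to derive GI50.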

[2] = test system: VCaP cells; test: Cellular growth inhibition assay for VCaP cells, CellTiter-Glo; type: cell-based, human; details: Homo sapiens, VCaP, 72 h, 72 hours treatment, CellTiter-Glo 2.0
Method in brief: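 GI50 values come from four-parameter curve fits of luminescence data normalized to a zero baseline. Compound, in medium with 0.5% DMSO, was added one day after plating and left for 72 h before CellTiter-Glo 2.0 addition.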

[3] = test system: T-Rex 293 cell line SC3 cells having increased expression of androgen receptor protein due to exposure to doxycycline; test: Cellular growth inhibition, T-Rex 293 SC3 cells with doxycycline (androgen receptor induced), CellTiter-Glo; type: cell-based; details: T-Rex 293 SC3 cells with 10 ng/mL doxycycline (increased androgen receptor expression)
Method in brief: (§1)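 Doxycycline-inducible androgen receptor T-Rex 293 clone SC3, seeded at 2500/well in phenol red-free DMEM with 10% charcoal-dextran FBS, without doxycycline or with 10 ng/mL to induce receptor. Compound added after 24 h (0.5% DMSO), 72 h at 37 °C; CellTiter-Glo 2.0 luminescence, GI50 by four-parameter fit.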

[4] = test system: T-Rex 293 cell line SC3 cells lacking increased expression of androgen receptor protein; test: Cellular growth inhibition, T-Rex 293 SC3 cells without doxycycline, CellTiter-Glo; type: cell-based; details: T-Rex 293 SC3 cells not exposed to doxycycline, CellTiter-Glo 2.0
Method in brief: as §1

SMILES	GI50 ([1]; Homo sapiens, T47D, 72 h) [nM]	GI50 [2] [nM]	GI50 ([3]; 72 h) [nM]	GI50 ([4]; 72 h) [nM]	GI50 ([3]; 72 hours) [nM]	GI50 ([4]; 72 hours) [nM]	GI50 [1] [nM]
Cc1sc2c(c1C)C(c1ccc(C(=O)N3CCC(Cc4ncc(C(=O)N[C@H]5C(C)(C)[C@H](Oc6ccc(C#N)c(Cl)c6)C5(C)C)cn4)CC3)cc1)=N[C@H](Cc1ncco1)c1nnc(C)n1-2 [Compound I-289]	> 3000	500 to 1500	< 500	> 3000	–	–	–
CCNC(=O)C[C@@H]1N=C(c2ccc(OCCC3CCN(c4ncc(C(=O)N[C@H]5C(C)(C)[C@H](Oc6ccc(C#N)c(Cl)c6)C5(C)C)cn4)CC3)cc2)c2c(sc(C)c2C)-n2c(C)nnc21 [Compound I-69]	500 to 1500	< 500	< 500	< 500	–	–	–
Cc1sc2c(c1C)C(c1ccc(CN(C)C(=O)CN(C)c3ncc(C(=O)N[C@H]4C(C)(C)[C@H](Oc5ccc(C#N)c(Cl)c5)C4(C)C)cn3)cc1)=N[C@@H](Cc1ncco1)c1nnc(C)n1-2 [Compound I-335]	500 to 1500	500 to 1500	< 500	> 3000	–	–	–
Cc1sc2c(c1C)C(c1ccc(CC3CCN(c4ncc(C(=O)N[C@H]5C(C)(C)[C@H](Oc6ccc(C#N)c(Cl)c6)C5(C)C)cn4)CC3)cc1)=NC1(CC1)c1nnc(C)n1-2 [Compound I-555]	> 3000	< 500	< 500	500 to 1500	–	–	–
Cc1sc2c(c1C)C(c1ccc(-c3noc(C4CCN(c5ncc(C(=O)N[C@H]6C(C)(C)[C@H](Oc7ccc(C#N)c(Cl)c7)C6(C)C)cn5)CC4)n3)cc1)=N[C@@H](Cc1ncco1)c1nnc(C)n1-2 [Compound I-454]	500 to 1500	< 500	< 500	< 500	–	–	–
Cc1sc2c(c1C)C(c1ccc(CC[C@@H]3CC[C@@]4(CCCN(c5ncc(C(=O)N[C@H]6C(C)(C)[C@H](Oc7ccc(C#N)c(Cl)c7)C6(C)C)cn5)C4)C3)cc1)=N[C@H](Cc1ncco1)c1nnc(C)n1-2 [Compound I-252]	< 500	> 3000	< 500	> 3000	–	–	–
Cc1sc2c(c1C)C(c1ccc(CCCOC3CCN(c4ncc(C(=O)N[C@H]5C(C)(C)[C@H](Oc6ccc(C#N)c(Cl)c6)C5(C)C)cn4)CC3)cc1)=N[C@@H](Cc1cnccn1)c1nnc(C)n1-2 [Compound I-277]	> 3000	> 3000	< 500	> 3000	–	–	–
Cc1sc2c(c1C)C(c1ccc(CC[C@H]3CC[C@]4(CCCN(c5ncc(C(=O)N[C@H]6C(C)(C)[C@H](Oc7ccc(C#N)c(Cl)c7)C6(C)C)cn5)C4)C3)cc1)=N[C@H](Cc1ncco1)c1nnc(C)n1-2 [Compound I-251]	< 500	< 500	< 500	> 3000	–	–	–
Cc1sc2c(c1C)C(c1ccc(N3CCOC4(CCN(c5ncc(C(=O)N[C@H]6C(C)(C)[C@H](Oc7ccc(C#N)c(Cl)c7)C6(C)C)cn5)CC4)C3)cc1)=NC(Cc1ncco1)c1nnc(C)n1-2 (some centres unmarked) [Compound I-647]	< 500	> 3000	< 500	> 3000	–	–	–
Cc1sc2c(c1C)C(c1ccc(C[C@@H]3CC[C@]4(C3)CN(c3ncc(C(=O)N[C@H]5C(C)(C)[C@H](Oc6ccc(C#N)c(Cl)c6)C5(C)C)cn3)CCO4)cc1)=N[C@H](Cc1ncco1)c1nnc(C)n1-2 [Compound I-312]	1500 to 3000	< 500	< 500	< 500	–	–	–
Cc1sc2c(c1C)C(c1ccc([C@H]3C[C@H]([C@@H]4CCCN(c5ncc(C(=O)N[C@H]6C(C)(C)[C@H](Oc7ccc(C#N)c(Cl)c7)C6(C)C)cn5)C4)C3)cc1)=N[C@@H](Cc1ncco1)c1nnc(C)n1-2 [Compound I-422]	< 500	< 500	< 500	> 3000	–	–	–
Cc1sc2c(c1C)C(c1ccc(NCC3CCN(c4ncc(C(=O)N[C@H]5C(C)(C)[C@H](Oc6ccc(C#N)c(Cl)c6)C5(C)C)cn4)C3)cc1)=NC(Cc1ncco1)c1nnc(C)n1-2 (some centres unmarked) [Compound I-639]	< 500	< 500	< 500	< 500	–	–	–
Cc1sc2c(c1C)C(c1ccc(N(C)CC(=O)N3CCC(c4ncc(C(=O)N[C@H]5C(C)(C)[C@H](Oc6ccc(C#N)c(Cl)c6)C5(C)C)cn4)CC3)cc1)=N[C@@H](Cc1ncco1)c1nnc(C)n1-2 [Compound I-355]	> 3000	> 3000	> 3000	> 3000	–	–	–
Cc1sc2c(c1C)C(c1ccc(O[C@H]3C[C@]4(CCCN(c5ncc(C(=O)N[C@H]6C(C)(C)[C@H](Oc7ccc(C#N)c(Cl)c7)C6(C)C)cn5)C4)C3)cc1)=N[C@@H](Cc1ncco1)c1nnc(C)n1-2 [Compound I-194]	500 to 1500	< 500	< 500	< 500	–	–	–
Cc1sc2c(c1C)C(c1ccc(C[C@H]3C[C@]4(CCCN(c5ncc(C(=O)N[C@H]6C(C)(C)[C@H](Oc7ccc(C#N)c(Cl)c7)C6(C)C)cn5)C4)C3)cc1)=N[C@@H](Cc1ncco1)c1nnc(C)n1-2 [Compound I-157]	500 to 1500	500 to 1500	< 500	> 3000	–	–	–
Cc1sc2c(c1C)C(c1ccc(OC3CC4(C3)C[C@H](C)N(c3ncc(C(=O)N[C@H]5C(C)(C)[C@H](Oc6ccc(C#N)c(Cl)c6)C5(C)C)cn3)[C@@H](C)C4)cc1)=N[C@@H](Cc1ncco1)c1nnc(C)n1-2 (some centres unmarked) [Compound I-282]	< 500	> 3000	< 500	> 3000	–	–	–
Cc1sc2c(c1C)C(c1ccc(N3C4CCC3CN(c3ncc(C(=O)N[C@H]5C(C)(C)[C@H](Oc6ccc(C#N)c(Cl)c6)C5(C)C)cn3)C4)cc1)=N[C@@H](Cc1ncco1)c1nnc(C)n1-2 [Compound I-635]	< 500	< 500	–	–	< 500	< 500	–
Cc1sc2c(c1C)C(c1ccc(N3CCCC(C(=O)N4CCC[C@H](c5ncc(C(=O)N[C@H]6C(C)(C)[C@H](Oc7ccc(C#N)c(Cl)c7)C6(C)C)cn5)C4)C3)cc1)=N[C@@H](Cc1ncco1)c1nnc(C)n1-2 (some centres unmarked) [Compound I-336]	< 500	500 to 1500	< 500	500 to 1500	–	–	–
Cc1sc2c(c1C)C(c1ccc(C#C[C@H]3C[C@@]4(CCCN(c5ncc(C(=O)N[C@H]6C(C)(C)[C@H](Oc7ccc(C#N)c(Cl)c7)C6(C)C)cn5)C4)C3)cc1)=N[C@@H](C)c1nnc(C)n1-2 [Compound I-378]	> 3000	< 500	< 500	> 3000	–	–	–
Cc1sc2c(c1C)C(c1ccc(C3CC(N4CCN(c5ncc(C(=O)N[C@H]6C(C)(C)[C@H](Oc7ccc(C#N)c(Cl)c7)C6(C)C)cn5)CC4)C3)cc1)=N[C@@H](C)c1nnc(C)n1-2 (some centres unmarked) [Compound I-571]	< 500	< 500	< 500	500 to 1500	–	–	–
Cc1sc2c(c1C)C(c1ccc(N3CC(C4CCCN(c5ncc(C(=O)N[C@H]6C(C)(C)[C@H](Oc7ccc(C#N)c(Cl)c7)C6(C)C)cn5)C4)C3)cc1)=N[C@@H](C)c1nnc(C)n1-2 (some centres unmarked) [Compound I-473]	–	> 3000	< 500	–	–	> 3000	> 3000
Cc1sc2c(c1C)C(c1ccc(C(=O)N3CCCC(C(=O)c4ncc(C(=O)N[C@H]5C(C)(C)[C@H](Oc6ccc(C#N)c(Cl)c6)C5(C)C)cn4)C3)cc1)=N[C@H](Cc1ncco1)c1nnc(C)n1-2 (some centres unmarked) [Compound I-346]	> 3000	500 to 1500	< 500	> 3000	–	–	–
Cc1sc2c(c1C)C(c1ccc(COC3CCN(c4ncc(C(=O)N[C@H]5C(C)(C)[C@H](Oc6ccc(C#N)c(Cl)c6)C5(C)C)cn4)CC3)cc1)=N[C@@H](C)c1nnc(C)n1-2 [Compound I-347]	> 3000	> 3000	> 3000	> 3000	–	–	–

Reference: patent publication US20260062422A1 (Halda Therapeutics OpCo, Inc., priority 2022, published 2026)
